A short description of series [1]: Dissolution testing below equilibrium solubility (sink) in modified simulated lung fluid with 0.02% DPPC. It is filed as physicochemical. The following applies: SLF 0.02% DPPC. On the procedure: Dissolution Testing at Below Equilibrium Solubility. Dissolution testing at below equilibrium solubility was performed on the URF powder samples using a United States Pharmacopeia (USP) 27 Type 2 dissolution apparatus (VanKel VK6010 Dissolution Tester with a Vanderkamp VK650A heater/circulator, Varian, Inc. Palo Alto, CA). […] The dissolution media was maintained at 37.0±0.2° C. and stirred at a constant rate of 50 rpm. Samples (1 mL) were withdrawn at 10, 20, 30, 60 and 120 minute time points, filtered using a 0.45 μm GHP Acrodisc filter (VWR, Inc., West Chester, PA) and analyzed using a Shimadzu LC-10 liquid chromatograph (Shimadzu Corporation, Kyoto, Japan) equipped with an Alltech ODS-2, 5 μm C18 column (Alltech Associates, Inc., Deerfield, IL). The mobile phase consisted of a 70:30 (v/v) ACN: Water mixture, used at a flow rate of 1 mL/min. The maximum absorbance was measured at wavelength λmax=214 nm.
Example 5. […] Samples (1 mL) were withdrawn at 10, 20, 30, 60, and 120 minute time points, filtered using a 0.45 μm GHP Acrodisc filter (VWR, Inc. Westchester, PA), and analyzed using a Shimadzu LC-10 liquid chromatograph (Shimadzu Corporation, Kyoto, Japan) equipped with an Altech ODS-2, 5 μm C18 column (Altech Associates, Deerfield, IL). […] The maximum absorbance was measured at wavelength λ=214 nm.

For series [2] the following is noted: adult patients; cited from earlier work.
Series [3] in a line: BET specific surface area analysis. It is filed as physicochemical. On the procedure:
As used herein, the term “BET Analysis” refers to a method for measuring the surface area of the exposed surface of a solid sample on the molecular scale. The BET (Brunauer, Emmet, and Teller) theory is typically used to determine the area of solids. Commonly, samples are prepared by heating and simultaneously evacuating or flowing gas over the sample to remove the liberated impurities. The prepared samples are then cooled with liquid nitrogen and analyzed by measuring the volume of gas (typically N2 or Kr) adsorbed at specific pressures. Krypton gas is often used when the measured surface is expected to be less than 2 m^2/g (typically pharmaceutical samples and natural organic materials). The skilled artisan will recognize that several types of instruments may be used for measuring surface area, which depends upon the extent of the surface or the gas required to achieve the best results. […]
BET Specific Surface Area Analysis. Specific surface area was measured using a Nova 2000 v. […] The data recorded were then analyzed according to BET theory using NOVA Enhanced Data Reduction Software v. […]
Example 3. […] Specific surface area was measured using a Nova 2000 v 6.11 instrument (Quantachrome Instruments, Boynton Beach, FL). […] The data recorded were then analyzed according to BET theory using NOVA Enhanced Data Reduction Software v. […]

Series [4] is described as follows: Equilibrium solubility of TAC in modified simulated lung fluid with 0.02% DPPC. The following applies: modified simulated lung fluid (SLF) with 0.02% DPPC, 37 °C, fassgf or other biorelevant, thermodynamic from solid, modified simulated lung fluid 0.02% DPPC. The class given is physicochemical.
A short description of series [5]: Evaluation of rodent dosing apparatus with nebulized ITZ colloidal suspension, in vivo lung concentration. More on the design: species or system outbred ICR mice. The following applies: individual mice, 5 min nebulization. An excerpt:
As used herein, the term “pre-clinical rodent dosing apparatus” refers to the apparatus reported by J. T. McConville, P. Sinswat, J. Tam, K. P. Johnston and R. O. Williams III, In vitro and in vivo validation of a high-concentration pre-clinical rodent dosing apparatus for inhalation, Proceedings of the American Association of Pharmaceutical Scientists, San Antonio, TX, October, 2006, relevant portions incorporated herein by reference. An animal dosing chamber was designed which consisted of hollow tubing (20×4.5 cm; nominal wall thickness of 0.4 cm) with four 1.75 cm adapter holes drilled at 7 cm intervals (2 holes along each side). The adapter holes were constructed to accept rodent restraint tubes from the Battelle® toxicology testing unit. A standard itraconazole (ITZ) colloidal suspension was nebulized into the apparatus for 5 minutes using a micro-pump nebulizer. Atomized droplets containing ITZ were driven into the chamber at a flow rate of 1 L/min. ITZ concentrations were measured in vitro at the 4 adapter ports, and in vivo from the lungs of 8 outbred-ICR mice in the appropriate mice restraining tubes at the adapter ports.
Example 11. […] ITZ concentrations were measured in vitro at the 4 adapter ports, and in vivo from the lungs of male outbred ICR mice in the appropriate mice restraining tubes at the adapter ports. […]

Values after ≈ are worked out from the molar mass of the structure shown. Values joined by “and” are separate entries in the source; they are usually repeats but may differ in a detail not shown here. Equal entries are not always repeated.

Regarding `C=CC[C@@H]1/C=C(\C)C[C@H](C)C[C@H](OC)[C@H]2O[C@@](O)(C(=O)C(=O)N3CCCC[C@H]3C(=O)O[C@H](/C(C)=C/[C@@H]3CC[C@@H](O)[C@H](OC)C3)[C@H](C)[C@@H](O)CC1=O)[C@H](C)C[C@@H]2OC` [unprocessed TAC, Tacrolimus], the “dissolution of TAC” value in series [1] (at 1 hr, 37° C.) was 30%; in series [1] (in 30 minutes, sink conditions), 30%. In addition, the average oral bioavailability result in series [2] is on record as “approximately 25%”. In series [3] (Table 2), the “Specific Surface Area” value is given as 0.533 m^2/g. Also, the “Surface Area (BET)” value in series [3] (URF study, Table 4) stood at 0.53 m^2/g. Moreover, the solubility (thermodynamic) in series [4] was around 6.8 µg/mL (≈ 8.46 µM).

For `CCC(C)n1ncn(-c2ccc(N3CCN(c4ccc(OCC5COC(Cn6cncn6)(c6ccc(Cl)cc6Cl)O5)cc4)CC3)cc2)c1=O` (stereo not shown) [ITZ, itraconazole], the “ITZ Conc. in Lung Tissue” value in series [5] is 21.6 µg/g and 20.2 µg/g and 18.3 µg/g and 13.5 µg/g and 15.9 µg/g and 18.6 µg/g and 19.2 µg/g and 22.7 µg/g.

For orientation: thermodynamic solubility means solubility found after equilibrating the solid with the medium.

The values above are taken from patent US12226404B2, “Methods for making compositions for pulmonary administration” (Board of Regents, the University of Texas System, priority 2007, dated 2025).
